Drawing on patent US20260226068A1, “IMIDAZOTRIAZINE IL-17A MODULATORS AND USES THEREOF” (DICE ALPHA, INC., priority 2023, published 2026), this text covers IC50 for 26 compounds.

The target of experiment [1] is T1, IL-17A/A (Homo sapiens, UniProt Q16552).
T1 construct: purchased Genscript Z03228
T1 sequence (Q16552 24-155): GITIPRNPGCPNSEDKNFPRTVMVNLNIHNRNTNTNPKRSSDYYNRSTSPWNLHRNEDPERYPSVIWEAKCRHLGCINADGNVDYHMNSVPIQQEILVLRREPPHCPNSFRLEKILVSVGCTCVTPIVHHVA
The experiment is described as follows: IL-17A/A HEK-Blue cell assay (SEAP reporter). As to conditions: HEK-Blue IL-17A reporter cells, IL17A/A 5 ng/mL, 20 hours, SEAP read at A630; read-out: HEK-Blue IL17AA (IC50 for IL-17A/A inhibition). The experiment is classed as cell-based.

For experiment [2], the target named is T2, IL-17A/F (Homo sapiens, UniProt Q16552+Q96PD4).
T2 construct: purchased R&D Systems
T2 sequence (Q16552 24-155): T1 sequence (Q16552 24-155)
T2 sequence (Q96PD4 31-163): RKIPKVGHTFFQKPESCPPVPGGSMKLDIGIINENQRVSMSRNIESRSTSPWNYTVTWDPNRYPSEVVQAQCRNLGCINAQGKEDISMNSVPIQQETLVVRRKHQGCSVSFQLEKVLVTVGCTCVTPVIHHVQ
The experiment is described as follows: IL-17A/F HEK-Blue cell assay (SEAP reporter). It is filed as cell-based. As to conditions: HEK-Blue IL-17A reporter cells, IL17A/F 5 ng/mL, 20 hours, SEAP read at A630; read-out: HEK-Blue IL17AF (IC50 for IL-17A/F inhibition).

On to `CCn1nccc1C(=O)N[C@H](c1cn2nc(C[C@H]3C[C@@H](C(F)(F)F)CNC3=O)c(N(C)CC3(C)COC3)nc2n1)C1CCC(F)(F)CC1` [Compound 195, N—((S)-(4,4-difluorocyclohexyl)(3-(methyl((3-methyloxetan-3-yl)methyl)amino)-2-(((3R,5R)-2-oxo-5-(trifluoromethyl)piperidin-3-yl)methyl)imidazo[1,2-b][1,2,4]triazin-6-yl)methyl)-1-ethyl-1H-pyrazole-5-carboxamide], for which the IC50 was 0.1 to 1 µM in experiment [1] and greater than 1 µM in experiment [2].

Turning to `CCn1nccc1C(=O)N[C@H](c1cn2nc(C[C@H]3C[C@H](C)CNC3=O)c(C(C)C)nc2n1)C1CCC(F)(F)CC1` [Compound 391], the IC50 in experiment [1] was less than 0.1 µM; in experiment [2], greater than 1 µM.

Regarding `CCc1nonc1C(=O)N[C@H](c1cn2nc(C[C@H]3C[C@@H](C)CNC3=O)c(C3CCOCC3)nc2n1)C1CCC(F)(F)CC1` [Compound 393], the IC50 is 0.1 to 1 µM in experiment [1] and greater than 1 µM in experiment [2].

Consider `CCn1nccc1C(=O)N[C@@H](CCC(C)(C)C(F)(F)F)c1cn2nc(C[C@H]3C[C@@H](C(F)(F)F)CNC3=O)c(C3CCOCC3)nc2n1` (single isomer, unassigned) [Compound 160], for which the IC50 in experiment [1] is less than 0.1 µM; in experiment [2], 0.1 to 1 µM.

With `CCn1nccc1C(=O)N[C@H](c1cn2nc(CN3C[C@@H](C(F)(F)F)NC3=O)c(C3CCOCC3)nc2n1)C1CCC(F)(F)CC1` [Compound 434], the IC50 in experiment [1] is 0.1 to 1 µM; in experiment [2] it was greater than 1 µM.

On to `O=C(N[C@H](c1cn2nc(C[C@H]3C[C@@H](C(F)(F)F)CNC3=O)cnc2n1)C1CCC(F)(F)CC1)c1conc1C(F)(F)F` [Compound 42], for which the figures for the IC50 in experiment [1] and in experiment [2] were 0.1 to 1 µM and greater than 1 µM, respectively.

As for `Cn1nccc1C(=O)N[C@H](c1cn2nc(C[C@H]3C[C@@H](C(F)(F)F)CNC3=O)cnc2n1)C1CCC(F)(F)CC1` [Compound 36], the IC50 in experiment [1] was 0.1 to 1 µM; in experiment [2], greater than 1 µM.

Regarding `CCn1nccc1C(=O)N[C@H](c1cn2nc(C[C@H]3CC4(CC4)CNC3=O)c(C3CCOCC3)nc2n1)C1CCC(F)(F)CC1` [Compound 423], the IC50 is less than 0.1 µM in experiment [1] and greater than 1 µM in experiment [2].

As for `CCn1nccc1C(=O)N[C@H](c1cn2nc(C[C@H]3C[C@@H](C(F)(F)F)CNC3=O)c(C(C)C(F)(F)F)nc2n1)C1CCC(F)(F)CC1` (single isomer, unassigned) [Compound 174], the IC50 in experiment [1] was less than 0.1 µM; in experiment [2], 0.1 to 1 µM.

As to `CCn1nccc1C(=O)N[C@H](c1cn2nc(C[C@H]3C[C@@H](C(F)(F)F)CNC3=O)c(CC3CCOCC3)nc2n1)[C@H]1CC[C@H](C)CC1` [Compound 179, 1-ethyl-N-((1S)-((1R,4S)-4-methylcyclohexyl)(2-(((3R,5R)-2-oxo-5-(trifluoromethyl)piperidin-3-yl)methyl)-3-((tetrahydro-2H-pyran-4-yl)methyl)imidazo[1,2-b][1,2,4]triazin-6-yl)methyl)-1H-pyrazole-5-carboxamide], the IC50 in experiment [1] and in experiment [2] was less than 0.1 µM throughout.

On to `CCc1nc2nc([C@@H](NC(=O)c3ccnn3C)C3CCC(F)(F)CC3)cn2nc1C[C@H]1C[C@@H](C(F)(F)F)CNC1=O` [Compound 295, N—((S)-(4,4-difluorocyclohexyl)(3-ethyl-2-(((3R,5R)-2-oxo-5-(trifluoromethyl)piperidin-3-yl)methyl)imidazo[1,2-b][1,2,4]triazin-6-yl)methyl)-1-methyl-1H-pyrazole-5-carboxamide], for which the IC50 was less than 0.1 µM in experiment [1] and greater than 1 µM in experiment [2].

Take `O=C(N[C@H](c1cn2nc(CC3C[C@@H](C(F)(F)F)CNC3=O)cnc2n1)C1CCC(F)(F)CC1)c1nonc1C1CC1` (stereo partly drawn) [Compound 13, 4-cyclopropyl-N—((S)-(4,4-difluorocyclohexyl)(2-(((5R)-2-oxo-5-(trifluoromethyl)piperidin-3-yl)methyl)imidazo[1,2-b][1,2,4]triazin-6-yl)methyl)-1,2,5-oxadiazole-3-carboxamide]: the results for the IC50 in experiment [1] and in experiment [2] were less than 0.1 µM and greater than 1 µM, respectively.

In the case of `CCn1nccc1C(=O)N[C@H](c1cn2nc(CC3C[C@@H](C(F)(F)F)CNC3=O)c(N3C[C@H]4C[C@@H]3CO4)nc2n1)C1CCC(F)(F)CC1` (single isomer, unassigned) [Compound 86], the results for the IC50 in experiment [1] and in experiment [2] were less than 0.1 µM and 0.1 to 1 µM, respectively.

On to `CC(C)n1nccc1C(=O)N[C@H](c1cn2nc(CC3C[C@@H](C(F)(F)F)CNC3=O)cnc2n1)C1CCC(F)(F)CC1` (stereo partly drawn) [Compound 6, N—((S)-(4,4-difluorocyclohexyl)(2-(((5R)-2-oxo-5-(trifluoromethyl)piperidin-3-yl)methyl)imidazo[1,2-b][1,2,4]triazin-6-yl)methyl)-1-isopropyl-1H-pyrazole-5-carboxamide], for which the IC50 in experiment [1] is less than 0.1 µM; in experiment [2] it was greater than 1 µM.

Regarding `CCc1nonc1C(=O)N[C@H](c1cn2nc(C[C@@H]3C[C@H](C)CNC3=O)c(C3CCOCC3)nc2n1)C1CCC(F)(F)CC1` [Compound 396], the values for the IC50 in experiment [1] and in experiment [2] were less than 0.1 µM and greater than 1 µM, respectively.

Take `CCn1nccc1C(=O)N[C@H](c1cn2nc(C[C@H]3C[C@@H](C(F)(F)F)CNC3=O)c(N3CCN(C(C)(C)C)CC3)nc2n1)C1CCC(F)(F)CC1` [Compound 242, N—((S)-(3-(4-(tert-butyl)piperazin-1-yl)-2-(((3R,5R)-2-oxo-5-(trifluoromethyl)piperidin-3-yl)methyl)imidazo[1,2-b][1,2,4]triazin-6-yl)(4,4-difluorocyclohexyl)methyl)-1-ethyl-1H-pyrazole-5-carboxamide]: the IC50 in experiment [1] is less than 0.1 µM; in experiment [2] it was 0.1 to 1 µM.

For `CCn1nccc1C(=O)N[C@H](c1cn2nc(CC3C[C@@H](C(F)(F)F)CNC3=O)c(N3CC4CC(C3)O4)nc2n1)[C@@H]1CCCC(F)(F)C1` (single isomer, unassigned) [Compound 97], the IC50 is less than 0.1 µM in experiment [1] and greater than 1 µM in experiment [2].

Consider `CCn1nccc1C(=O)N[C@H](c1cn2nc(CC3C[C@@H](C(F)(F)F)CNC3=O)c(N(C)C)nc2n1)C1CCC(F)(F)CC1` (single isomer, unassigned) [Compound 48], for which the values for the IC50 in experiment [1] and in experiment [2] were less than 0.1 µM and 0.1 to 1 µM, respectively.

Regarding `CCn1nccc1C(=O)N[C@H](c1cn2nc(C[C@H]3C[C@@H](C(F)(F)F)CNC3=O)c(C3CCCOC3)nc2n1)[C@H]1CCCC(F)(F)C1` (single isomer, unassigned) [Compound 68], the IC50 in experiment [1] and in experiment [2] was less than 0.1 µM each time.

As for `CCn1nccc1C(=O)N[C@H](c1cn2nc(C[C@H]3C[C@@H](C(F)(F)F)CNC3=O)c(CN3CCC(C)(C)C3)nc2n1)C1CCC(F)(F)CC1` [Compound 342, N—((S)-(4,4-difluorocyclohexyl)(3-((3,3-dimethylpyrrolidin-1-yl)methyl)-2-(((3R,5R)-2-oxo-5-(trifluoromethyl)piperidin-3-yl)methyl)imidazo[1,2-b][1,2,4]triazin-6-yl)methyl)-1-ethyl-1H-pyrazole-5-carboxamide], the values for the IC50 in experiment [1] and in experiment [2] were 0.1 to 1 µM and greater than 1 µM, respectively.

On to `O=C(N[C@H](c1cn2nc(C[C@H]3C[C@@H](C(F)(F)F)CNC3=O)c(C3CCOCC3)nc2n1)C1CCC(F)(F)CC1)c1nonc1C(F)F` [Compound 190, N-((1S)-(4,4-difluorocyclohexyl)(2-(((3R,5R)-2-oxo-5-(trifluoromethyl)piperidin-3-yl)methyl)-3-(tetrahydro-2H-pyran-4-yl)imidazo[1,2-b][1,2,4]triazin-6-yl)methyl)-4-(difluoromethyl)-1,2,5-oxadiazole-3-carboxamide], for which the IC50 was less than 0.1 µM in experiment [1] and greater than 1 µM in experiment [2].

With `CCn1nccc1C(=O)N[C@H](c1cn2nc(CC3C[C@@H](C(F)(F)F)CNC3=O)c(N3C[C@H]4C[C@@H]3CO4)nc2n1)C1CCC(F)(F)CC1` (single isomer, unassigned) [Compound 85], the values for the IC50 in experiment [1] and in experiment [2] were 0.1 to 1 µM and greater than 1 µM, respectively.

Consider `CCc1nonc1C(=O)N[C@H](c1cn2nc(C[C@H]3C[C@H](C)CNC3=O)c(C3CCOCC3)nc2n1)C1CCC(F)(F)CC1` [Compound 395], for which the IC50 is less than 0.1 µM in experiment [1] and greater than 1 µM in experiment [2].

Take `CCn1nccc1C(=O)N[C@H](c1cn2nc(C[C@H]3C[C@@H](C(F)(F)F)CNC3=O)c(C3COCCC3(F)F)nc2n1)C1CCC(F)(F)CC1` (single isomer, unassigned) [Compound 259]: the IC50 in experiment [1] and in experiment [2] was less than 0.1 µM throughout.

Consider `O=C(N[C@H](c1cn2nc(C[C@H]3C[C@@H](C(F)(F)F)CNC3=O)c(C3CCOCC3)nc2n1)C1CCC(F)(F)CC1)c1nonc1CN1CC(F)C1` [Compound 373, N—((S)-(4,4-difluorocyclohexyl)(2-(((3R,5R)-2-oxo-5-(trifluoromethyl)piperidin-3-yl)methyl)-3-(tetrahydro-2H-pyran-4-yl)imidazo[1,2-b][1,2,4]triazin-6-yl)methyl)-4-((3-fluoroazetidin-1-yl)methyl)-1,2,5-oxadiazole-3-carboxamide], for which the IC50 in experiment [1] is less than 0.1 µM; in experiment [2], 0.1 to 1 µM.

In the case of `O=C(N[C@H](c1cn2nc(C[C@H]3C[C@@H](C(F)(F)F)CNC3=O)c(C3CCOCC3)nc2n1)C1CCC(F)(F)CC1)c1ccnn1CC(F)F` [Compound 187, N-((1S)-(4,4-difluorocyclohexyl)(2-(((3R,5R)-2-oxo-5-(trifluoromethyl)piperidin-3-yl)methyl)-3-(tetrahydro-2H-pyran-4-yl)imidazo[1,2-b][1,2,4]triazin-6-yl)methyl)-1-(2,2-difluoroethyl)-1H-pyrazole-5-carboxamide], the IC50 in experiment [1] was less than 0.1 µM; in experiment [2], 0.1 to 1 µM.
